# Experiments:
# [1] = target: T1, human neutrophil elastase (HNE) (Homo sapiens, UniProt P08246); experiment: Specificity assay, elastase (pNA substrate); format: biochemical; settings: read-out: HLE activity in the specificity assay (IC50)
# T1 construct: purchased Sigma or EMDbiosciences
# T1 sequence (P08246 30-267): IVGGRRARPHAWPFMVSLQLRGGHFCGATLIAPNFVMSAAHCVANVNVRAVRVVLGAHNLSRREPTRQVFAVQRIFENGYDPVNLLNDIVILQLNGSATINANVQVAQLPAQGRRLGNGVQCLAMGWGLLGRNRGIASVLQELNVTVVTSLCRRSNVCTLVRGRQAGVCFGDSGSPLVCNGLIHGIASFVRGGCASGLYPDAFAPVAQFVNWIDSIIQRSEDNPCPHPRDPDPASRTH
# Description: (§1) The specificities of compounds of the present disclosure were determined against a variety of serine proteases: human neutrophil elastase (HNE), porcine pancreatic elastase (PPE) and human pancreatic chymotrypsin and one cysteine protease: human liver cathepsin B. In all cases, a 96-well plate format protocol using colorimetric p-nitroaniline (pNA) substrate or fluorometric Amino-Methyl-Coumarin (AMC) substrate, specific for each enzyme was used as described previously (PCT Patent Application No. WO 00/09543) with some modifications. All enzymes were purchased from Sigma or EMDbiosciences while the substrates were from Bachem.
# (§2) Each pNA assay included a 2 h enzyme-inhibitor pre-incubation at room temperature followed by addition of substrate and hydrolysis to ˜15% conversion as measured on a Spectramax Pro microplate reader. The cathepsin B assay was initiated by adding substrate to a 10 min enzyme-inhibitor pre-incubation at room temperature, and the assay plate measured immediately using the Cytofluor Series 4000. Compound concentrations varied from 100 to 0.4 μM depending on their potency.
# 50 mM Tris(hydroxymethyl)aminomethane hydrochloride (Tris-HCl) pH 8, 0.5 M Sodium Sulfate (Na2SO4), 50 mM NaCl, 0.1 mM EDTA, 3% DMSO, 0.01% Tween-20 with: […]
# (§3) The percentage of inhibition was calculated using the formula: [1−((UVinh−UVblank)/(UVctl−UVblank))]×100 […]
# [2] = target: T2, human liver cathepsin B (Homo sapiens, UniProt P07858); experiment: Specificity assay, cathepsin B (AMC substrate); format: biochemical
# T2 construct: purchased Sigma or EMDbiosciences; host or cells: human liver (as named)
# Description: as §1
# as §2, with “potency. […]” for “potency.”
# as §3
smiles,measurement,setting,value
COc1c(O[C@@H]2C[C@H]3C(=O)N[C@]4(C(=O)NS(=O)(=O)C5CC5)C[C@H]4/C=C\CCCCC[C@H](NC(=O)OC(C)(C)C)C(=O)N3C2)ccc2c(Cl)nccc12 [Compound 3],IC50,[1],> 25 µM
same,IC50,[2],≥ 100 µM

# From patent US20080107623A1, “Inhibitors of Hepatitis C Virus” (Bristol-Myers Squibb Company, priority 2006, published 2008)
